Each structure is given as a SMILES string. ≈ marks a conversion by molar mass, not a printed value. Bounds are passed on as bounds.

18 compounds from ChEMBL document CHEMBL1759983, “Design and SAR of macrocyclic Hsp90 inhibitors with increased metabolic stability and potent cell-proliferation activity” (Bioorg Med Chem Lett, 2011) can be followed below.

Data set [1] can be described thus: Aqueous solubility of the compound. It is filed as physicochemical.
Data set [2] has as its system HCT-116. Description: Antiproliferative activity against human HCT116 cells measured on day 4 by Cell titer-glo assay. Format: functional, cell-based. (In general: In ATP-based viability assays light output follows the ATP content of the culture.)
The target of data set [3] is Heat shock protein HSP 90-alpha (Homo sapiens, UniProt P07900).
Description: Inhibition of Hsp90alpha after 3 hrs by fluorescence polarization assay
A short description of data set [4]: in vitro. Conditions: rat, liver microsomes. (Liver microsomes are a subcellular fraction often used to study metabolism.)

With `Cc1c2c(n3c1CCCNC[C@H](C)Nc1cc-3ccc1C(N)=O)CC(C)(C)CC2=O`, the solubility (in general, the concentration that dissolves in the medium under given conditions) in data set [1] is greater than 100 µg/mL.

On to `Cc1c2c(n3c1CCNCCCNc1cc-3ccc1C(N)=O)CC(C)(C)CC2=O`, for which, in data set [2] (Homo sapiens, HCT-116, 96 h), the concentration for a half-maximal effect (EC50) (usually the midpoint of the concentration-response curve) was 8140 nM. The IC50 – broadly, the concentration that gives 50% inhibition – in data set [3] came to 400 nM.

For the compound `Cc1c2c(n3c1CCNCCNc1cc-3ccc1C(N)=O)CC(C)(C)CC2=O`, the solubility in data set [1] is greater than 100 µg/mL. The half-life – broadly, how long it takes for the measured level to halve – in data set [4] turned out to be 15 min. In addition, in data set [3], the IC50 was 12400 nM.

As to `Cc1c2c(n3c1CCCNCC(C)(C)CNc1cc-3ccc1C(N)=O)CC(C)(C)CC2=O`, the concentration giving a half-maximal response (EC50) in data set [2] (hct-116) was determined as 210 nM. Besides, the concentration in solution in data set [1] (solubility) was 6 µg/mL (≈ 13.7 µM). Also, the half-life in data set [4] was found to be 3 min. In addition, in data set [3], the 50% inhibitory concentration (IC50) is 290 nM.

In data set [2] (hct-116), `Cc1c2c(n3c1CCCNC(C)(C)CNc1cc-3ccc1C(N)=O)CC(C)(C)CC2=O` returned a half-maximal effective concentration (EC50) of 80 nM. In addition, the concentration in solution in data set [1] (solubility) came to 52 µg/mL (≈ 123 µM). In data set [4], the half-life is 15 min. Also, in data set [3], the half-maximal inhibitory concentration (IC50) was found to be 140 nM.

`Cc1c2c(n3c1CCCNCCNc1cc-3ccc1C(N)=O)CC(C)(C)CC2=O` gave an EC50 in data set [2] (Homo sapiens, HCT-116, 96 h) of 820 nM. For the same compound, the concentration in solution in data set [1] (solubility) was 35 µg/mL (≈ 88.7 µM). The compound also had a half-life in data set [4] greater than 30 min. This compound also displayed an IC50 in data set [3] of 920 nM.

`Cc1c2c(n3c1CCNCC[C@H](C)Nc1cc-3ccc1C(N)=O)CC(C)(C)CC2=O` came in with a solubility in data set [1] of 67 µg/mL (≈ 164 µM).

Compound `Cc1c2c(n3c1CCCNCC(C)(C)Nc1cc-3ccc1C(N)=O)CC(C)(C)CC2=O` registered an EC50 in data set [2] (Homo sapiens, HCT-116, 96 h) of 620 nM. The compound further came in with a solubility in data set [1] of 45 µg/mL (≈ 106 µM). Moreover, the half-life in data set [4] is greater than 30 min. This compound also returned an IC50 in data set [3] of 830 nM.

As for `Cc1c2c(n3c1CCNCC(C)CNc1cc-3ccc1C(N)=O)CC(C)(C)CC2=O` (stereo not drawn), the EC50 in data set [2] (Homo sapiens, HCT-116, 96 h) was found to be 250 nM. For the same compound, the concentration in solution in data set [1] (solubility) was 39 µg/mL (≈ 95.5 µM). For the same compound, the half-life in data set [4] was 5 min. In data set [3], half-maximal inhibition (IC50) was put at 360 nM.

Take `Cc1c2c(n3c1CCNCC(O)CNc1cc-3ccc1C(N)=O)CC(C)(C)CC2=O` (stereo not drawn): the concentration giving a half-maximal response (EC50) in data set [2] (Homo sapiens, HCT-116, 96 h) is 600 nM. The concentration in solution in data set [1] (solubility) was 70 µg/mL (≈ 171 µM). The half-life in data set [4] stood at 10 min. This compound also returned a half-inhibitory concentration (IC50) in data set [3] of 320 nM.

The compound `Cc1c2c(n3c1CCNCCOCCNc1cc-3ccc1C(N)=O)CC(C)(C)CC2=O` yielded an EC50 in data set [2] (Homo sapiens, HCT-116, 96 h) of 830 nM. In data set [1], this compound registered a solubility of 73 µg/mL (≈ 172 µM). For the same compound, the half-life in data set [4] was 28 min. In data set [3], the IC50 was 570 nM.

The compound `Cc1c2c(n3c1CNCCCCNc1cc-3ccc1C(N)=O)CC(C)(C)CC2=O` registered an EC50 in data set [2] (Homo sapiens, HCT-116, 96 h) greater than 5000 nM. The concentration in solution in data set [1] (solubility) was 18 µg/mL (≈ 45.6 µM). The half-life in data set [4] is 18 min. Moreover, the half-inhibitory concentration (IC50) in data set [3] was greater than 5000 nM.

Compound `Cc1c2c(n3c1CNCCC[C@H](C)Nc1cc-3ccc1C(N)=O)CC(C)(C)CC2=O` returned an EC50 in data set [2] (Homo sapiens, HCT-116, 96 h) greater than 5000 nM. In data set [1], this compound had a solubility of 16 µg/mL (≈ 39.2 µM). Also, in data set [4], the half-life was found to be 7 min. Further, in data set [3], the IC50 is greater than 5000 nM.

With `Cc1c2c(n3c1CCC(C)NCCNc1cc-3ccc1C(N)=O)CC(C)(C)CC2=O` (stereo not drawn), in data set [2] (Homo sapiens, HCT-116, 96 h), a half-maximal effect (EC50) was put at 940 nM. Further, in data set [1], the concentration in solution (solubility) was 69 µg/mL (≈ 169 µM). In data set [4], this compound registered a half-life of 26 min. The compound also had an IC50 in data set [3] of 1240 nM.

In data set [2] (Homo sapiens, HCT-116, 96 h), `Cc1c2c(n3c1CC[C@@H](C)N[C@H](C)CNc1cc-3ccc1C(N)=O)CC(C)(C)CC2=O` returned an EC50 of 30 nM. Moreover, in data set [1], the solubility was greater than 100 µg/mL. In addition, the half-life in data set [4] was found to be 15 min. The same compound showed a 50% inhibitory concentration (IC50) in data set [3] of 90 nM.

With `Cc1c2c(n3c1CC[C@H](C)N[C@H](C)CNc1cc-3ccc1C(N)=O)CC(C)(C)CC2=O`, a half-maximal response in data set [2] (Homo sapiens, HCT-116, 96 h) (EC50) required 360 nM. The solubility in data set [1] is 58 µg/mL (≈ 137 µM). In data set [4], this compound had a half-life of 7 min. Also, in data set [3], the IC50 is 430 nM.

With `Cc1c2c(n3c1CCCN(C)C[C@H](C)Nc1cc-3ccc1C(N)=O)CC(C)(C)CC2=O`, in data set [2] (hct-116), the response was half-maximal at 80 nM (EC50). The concentration in solution in data set [1] (solubility) was 31 µg/mL (≈ 73.4 µM). This compound returned a half-life in data set [4] of 11 min. In addition, 150 nM corresponded to half-maximal inhibition in data set [3] (IC50).

Compound `CC(=O)N1CCc2c(C)c3c(n2-c2ccc(C(N)=O)c(c2)N[C@@H](C)CC1)CC(C)(C)CC3=O` displayed an EC50 in data set [2] (Homo sapiens, HCT-116, 96 h) of 150 nM. This compound also yielded a solubility in data set [1] of 19 µg/mL (≈ 42.2 µM). Further, the half-life in data set [4] came out at 9 min. This compound gave an IC50 in data set [3] of 110 nM.
